These results are taken from patent publication US10849915B2, “Methods for treating inflammatory bowel disease using prostate specific membrane antigen (PSMA) inhibitors” (The Johns Hopkins University, priority 2014, dated 2020).

One data set relates to DSS-induced colitis. The experiment in a line: DSS-induced murine model of colitis. The format is in vivo, mice (C57/B6). From the text:
DSS-induced colitis model was generated as described previously (Alex et al., 2009; Alex et al., 2010). […] The fact that mutations in either IL-10 or IL-10 receptors in human lead to spontaneous Crohn's disease at very early age (usually less than 1 year old) (Glocker et al., 2011), further emphasize the critical role of IL-10 signaling pathway in its anti-inflammatory and immune-modulatory effects in the gut and the homeostasis of healthy gut.

For data set [1], the system named is spontaneous colitis in IL-10 KO mice. The experiment in a line: IL-10 knockout mice with spontaneous colitis. The format is in vivo, mice (C57/B6).
The conditions of data set [2]: 2-PMPA 100 mg/kg i.p., daily for 8 days, DSS mice, 2 h after dosing on day 8.
Description: Blood and colonic mucosa were collected for drug PK analysis. Plasma was generated from blood by centrifugation and all samples were stored at −80° C. until further analysis. Concentrations of inhibitors in plasma and tissue were determined via LC/MS/MS as described previously (Rais et al., 2013). Briefly, 2-PMPA was extracted from plasma and tissue by protein precipitation with 5× methanol containing 2-(phosphonomethyl) succinic acid (2-PMSA; 1 μM) as an internal standard. The samples were vortexed (30 s) and centrifuged (10,000 g for 10 min). Supernatant was dried under a gentle stream of nitrogen at 45° C. and the residue was reconstituted with 100 μL of acetonitrile and vortexed. 50 μL of derivatizing agent N-tert-Butyldimethysilyl-N-methyltrifluoro-acetamide (MTBSTFA) was added to microcentrifuge tubes, vortexed, and heated at approximately 60° C. for 40 min. At the end of 40 min, the derivatized samples were analyzed via LC/MS/MS. Chromatographic analysis was performed using an Accela™ ultra high-performance system consisting of an analytical pump, and an autosampler coupled with TSQ Vantage mass spectrometer (Thermo Fisher Scientific Inc., Waltham Mass.). […] The [M+H]+ ion transitions of derivatized 2-PMPA at m/z 683.0>551.4 and that of the internal standard at m/z 669.0>537.2 were monitored with the total run time of 5 min. […]
For a further data set, the target named is T1, PSMA (Mus musculus, UniProt O35409).
T1 construct: from tissue; host or cells: colonic or cecal mucosa of C57/B6 mice with DSS-induced colitis (sonicated tissue lysate supernatant)
T1 sequence (O35409 whole entry): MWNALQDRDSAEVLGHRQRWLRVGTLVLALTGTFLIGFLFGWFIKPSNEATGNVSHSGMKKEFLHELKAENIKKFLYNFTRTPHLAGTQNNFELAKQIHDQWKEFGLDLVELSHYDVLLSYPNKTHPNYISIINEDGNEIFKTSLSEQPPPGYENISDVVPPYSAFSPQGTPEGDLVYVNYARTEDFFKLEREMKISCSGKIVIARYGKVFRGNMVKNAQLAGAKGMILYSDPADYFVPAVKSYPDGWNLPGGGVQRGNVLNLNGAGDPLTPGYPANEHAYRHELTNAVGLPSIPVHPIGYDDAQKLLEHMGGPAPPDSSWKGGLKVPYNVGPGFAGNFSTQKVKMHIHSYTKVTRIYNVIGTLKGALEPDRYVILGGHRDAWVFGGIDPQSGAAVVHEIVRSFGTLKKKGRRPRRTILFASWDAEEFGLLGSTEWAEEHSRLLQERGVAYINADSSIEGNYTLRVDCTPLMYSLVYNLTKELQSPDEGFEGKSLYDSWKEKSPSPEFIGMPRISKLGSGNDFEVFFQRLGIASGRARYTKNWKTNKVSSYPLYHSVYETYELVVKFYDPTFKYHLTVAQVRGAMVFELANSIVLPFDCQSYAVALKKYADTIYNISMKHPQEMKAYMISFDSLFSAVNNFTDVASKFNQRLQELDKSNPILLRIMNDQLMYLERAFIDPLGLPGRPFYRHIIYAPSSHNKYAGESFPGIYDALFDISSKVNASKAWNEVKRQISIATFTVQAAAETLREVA
The experiment in a line: GCPII (PSMA) ex vivo activity assay on mucosa extract of DSS colitis mice. The format is biochemical. Conditions: DSS-treated mice, extract from mucosa; FIG. 4. Here is the method: On the day of the ex vivo experiment, the tissues were weighed and immersed in 0.5 ml of ice-cold 50 mM Tris Buffer (pH 7.7 at RT). While on ice, each tissue was sonicated for 30-60 seconds (medium output, 60) via use of a Kontes Ultrasonic Cell Disrupter. After a 2 min spin at 13,000 rpm, supernatants were analyzed for protein content (Dc Protein Assay Kit; Bio Rad). NAAG-hydrolyzing activity measurements were carried out, based on published procedures Robinson et al., 1987; Rojas et al., 2002). Briefly, the reaction mixture (total volume of 50 μL) contained NAA[3H]G (70 nM, 50 Ci/mmol) and tissue lysates (7 concentrations each, tested in quadruplicate), in Tris-HCl (pH 7.4, 40 mM) containing 1 mM CoCl2. Assay standards were comprised of human recombinant GCPII enzyme (40-200 pM, final). The reaction was carried out at 37° C. for 40-45 min and stopped with ice-cold sodium phosphate buffer (pH 7.4, 0.1 M, 50 μL). Blanks were obtained by incubating the reaction mixture in the absence of enzyme source. A 90 μL aliquot from each terminated reaction was transferred to a well in a 96-well spin column containing AG1X8 ion-exchange resin; the plate was centrifuged at 1500 rpm for 5 min using a Beckman GS-6R centrifuge equipped with a PTS-2000 rotor. […] The radioactivity corresponding to [3H]-G was determined with a scintillation counter (Topcount NXT, Packard, counting efficiency 80%). […]

Regarding `CC(C)OC(=O)OCOC(=O)C(CCC(=O)O)CP(=O)(OCOC(=O)OC(C)C)OCOC(=O)OC(C)C` (stereo not drawn) [Tris-POC-2-PMPA], the “colon shortening of DSS-colitis mice” value in the data set with DSS-induced colitis (oral administration, n=5 per group, P 0.06, not statistically significant, FIG. 9) is listed as “reversed”.

`O=C(O)CCC(CP(=O)(O)O)C(=O)O` (stereo not drawn) [2-PMPA, 2-(phosphonomethyl)-pentanedioic acid]: in data set [1] (2 of the 20 IL-10 KO mice treated, 100 mg/kg for 2 weeks, FIG. 6D), the “mice with complete retraction of prolapse” value was 10%. The “disease severity (macroscopic disease, colonic hypotrophy, stool consistency)” value in data set [1] (IL-10 KO mice, 3 month old, 2-PMPA 100 mg/kg for 2 weeks, FIGS. 6A-6B) is reported as “significantly reduced”. For the same compound, the “body weight of prolapse-retracting mice” value in data set [1] (compared to untreated control IL-10 KO mice, FIG. 6C) was “increased dramatically”. The “Disease activity index (DAI)” value in the data set on DSS-induced colitis (DSS 2.5%, 7 days in drinking water, 2-PMPA 100 mg/kg given simultaneously, vs vehicle, P<0.05, FIG. 3) was “ameliorates disease activity”. In addition, in the data set with DSS-induced colitis (DSS-induced murine model of colitis, FIG. 5), the “size and weight of spleen” value was “reduces”. For the same compound, in the data set with DSS-induced colitis (mice with DSS-colitis, FIG. 5), the spleen inflammation result is given as “significantly reduced”. Further, in data set [2], the “2-PMPA concentration in plasma and colon” value is reported as “approximately 25 μM”. The “PSMA activity in the colonic and cecal mucosa” value at PSMA is listed as “potently inhibited”.
